Here are results for 21 molecules from patent US11020398B2, “Amino-pyrrolopyrimidinone compounds and methods of use thereof” (ArQule, Inc., priority 2016, dated 2021).

SMILES strings stand for the structures.

The test addresses phosphorylated form of full length BTK (active BTK) (Homo sapiens (Human), UniProt Q06187). The test can be described thus: Mobility shift assay (MSA, Caliper LabChip), active BTK assay. In kind it is biochemical. The settings on record: Assay type B (MSA using active BTK). The method, then:
The active BTK assay consists of phosphorylated form of full length BTK. […] The enzyme inhibitor complexes is incubated, before the kinase activation reaction is initiated.
Mobility Shift Assay (MSA)
The active BTK assay consisted of phosphorylated form of full length BTK. […] The enzyme inhibitor complexes was incubated for 30 minutes at the room temperature and the kinase activation reaction was initiated by the addition of 1 μM Srctide peptide substrate and […].

phosphorylated form of full length BTK (active BTK), sequence (Q06187 whole entry): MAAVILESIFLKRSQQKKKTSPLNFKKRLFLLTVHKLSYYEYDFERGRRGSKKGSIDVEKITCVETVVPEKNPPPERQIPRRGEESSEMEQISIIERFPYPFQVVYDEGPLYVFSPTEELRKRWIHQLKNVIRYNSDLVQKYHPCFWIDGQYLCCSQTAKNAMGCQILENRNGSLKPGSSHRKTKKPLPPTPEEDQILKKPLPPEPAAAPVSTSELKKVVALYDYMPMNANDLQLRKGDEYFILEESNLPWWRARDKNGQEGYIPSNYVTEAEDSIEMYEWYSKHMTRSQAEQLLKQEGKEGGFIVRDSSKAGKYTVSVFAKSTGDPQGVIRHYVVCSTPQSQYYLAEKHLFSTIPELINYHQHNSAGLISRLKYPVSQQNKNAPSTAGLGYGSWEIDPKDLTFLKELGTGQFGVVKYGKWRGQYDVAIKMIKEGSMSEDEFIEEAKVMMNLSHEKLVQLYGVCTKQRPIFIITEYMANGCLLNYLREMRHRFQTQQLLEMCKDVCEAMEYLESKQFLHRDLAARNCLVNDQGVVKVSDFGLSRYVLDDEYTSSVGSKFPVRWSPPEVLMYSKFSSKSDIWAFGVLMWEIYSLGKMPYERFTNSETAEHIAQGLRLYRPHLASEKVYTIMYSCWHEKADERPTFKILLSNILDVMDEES

The term IC50 denotes the concentration needed to halve the response being measured. Regarding `O=C(c1ccc(Oc2ccccc2)cc1)c1c[nH]c2ncnc(N[C@@H]3CC[C@@H](C(=O)NC[C@@H](O)CO)OC3)c12` [Compound I-176, (2S,5R)—N—((R)-2,3-dihydroxypropyl)-5-((5-(4-phenoxybenzoyl)-7H-pyrrolo[2,3-d]pyrimidin-4-yl)amino)tetrahydro-2H-pyran-2-carboxamide], the IC50 was found to be 2.5 nM.

On to `CC1(O)CN([C@H]2CC[C@H](Nc3ncnc4[nH]cc(C(=O)c5ccccc5Cl)c34)CC2)C1` [Compound I-112, (2-chlorophenyl)(4-((trans-4-(3-hydroxy-3-methylazetidin-1-yl)cyclohexyl)amino)-7H-pyrrolo[2,3-d]pyrimidin-5-yl)methanone], for which the IC50 is 18 nM.

On to `Cc1cc(Oc2ccccc2)ccc1C(=O)c1c[nH]c2ncnc(N[C@@H]3CC[C@@H]([C@@H](C)O)OC3)c12` [Compound I-197, (4-(((3R,6S)-6-((R)-1-hydroxyethyl)tetrahydro-2H-pyran-3-yl)amino)-7H-pyrrolo[2,3-d]pyrimidin-5-yl)(2-methyl-4-phenoxyphenyl)methanone], for which the IC50 turned out to be 1.6 nM.

For `C[C@@H](O)C(=O)NC[C@@H]1CC[C@@H](Nc2ncnc3[nH]cc(C(=O)c4ccc(Oc5ccccc5)cc4)c23)CO1` [Compound I-217, (R)-2-hydroxy-N-(((2S,5R)-5-((5-(4-phenoxybenzoyl)-7H-pyrrolo[2,3-d]pyrimidin-4-yl)amino)tetrahydro-2H-pyran-2-yl)methyl)propanamide], the IC50 was found to be 3.2 nM.

Consider `O=C(c1ccc(Oc2ccccc2)cc1Cl)c1c[nH]c2ncnc(N[C@H]3C[C@H](CO)C3)c12` [Compound I-207, (2-chloro-4-phenoxyphenyl)(4-((trans-3-(hydroxymethyl)cyclobutyl)amino)-7H-pyrrolo[2,3-d]pyrimidin-5-yl)methanone], for which the IC50 is 4.1 nM.

As for `CN(C)C[C@]1(O)CC[C@H](Nc2ncnc3[nH]cc(C(=O)c4ccc(Oc5ccccc5)cc4Cl)c23)CC1` [Compound I-177, (2-chloro-4-phenoxyphenyl)(4-((trans-4-((dimethylamino)methyl)-4-hydroxycyclohexyl)amino)-7H-pyrrolo[2,3-d]pyrimidin-5-yl)methanone], the IC50 was found to be 1.7 nM.

In the case of `CC(=O)N[C@@H]1CC[C@@H](Nc2ncnc3[nH]cc(C(=O)c4ccc(Oc5ccccc5)cc4)c23)C1` [Compound I-192, N-((1R,3R)-3-((5-(4-phenoxybenzoyl)-7H-pyrrolo[2,3-d]pyrimidin-4-yl)amino)cyclopentyl)acetamide], the IC50 was 4.4 nM.

`CC(C)(C)OC(=O)N[C@H]1C[C@@H](Nc2ncnc3[nH]cc(C(=O)c4ccc(Oc5ccccc5)cc4)c23)C1` [Compound I-186, tert-butyl (cis-3-((5-(4-phenoxybenzoyl)-7H-pyrrolo[2,3-d]pyrimidin-4-yl)amino)cyclobutyl)carbamate]: the IC50 stood at 12 nM.

In the case of `C[C@]1(O)CC[C@@H](Nc2ncnc3[nH]cc(C(=O)c4ccc(Oc5ccccc5)cc4Cl)c23)CC1` [Compound I-200, (2-chloro-4-phenoxyphenyl)(4-((cis-4-hydroxy-4-methylcyclohexyl)amino)-7H-pyrrolo[2,3-d]pyrimidin-5-yl)methanone], the half-inhibitory concentration (IC50) was found to be 1.4 nM.

Take `N[C@H]1C[C@H](Nc2ncnc3[nH]cc(C(=O)c4ccc(Oc5ccccc5)cc4)c23)C1` [Compound I-191, (4-((trans-3-aminocyclobutyl)amino)-7H-pyrrolo[2,3-d]pyrimidin-5-yl)(4-phenoxyphenyl)methanone]: the IC50 came out at 37 nM.

`CC(C)(C)OC(=O)N[C@H]1C[C@H](Nc2ncnc3[nH]cc(C(=O)c4ccc(Oc5ccccc5)cc4)c23)C1` [Compound I-185, tert-butyl (trans-3-((5-(4-phenoxybenzoyl)-7H-pyrrolo[2,3-d]pyrimidin-4-yl)amino)cyclobutyl)carbamate]: the half-inhibitory concentration (IC50) worked out at 57 nM.

Regarding `CC(=O)N[C@@H](C)[C@@H]1CC[C@@H](Nc2ncnc3[nH]cc(C(=O)c4ccccc4C)c23)CO1` [Compound I-117, N—((S)-1-((2S,5R)-5-((5-(2-methylbenzoyl)-7H-pyrrolo[2,3-d]pyrimidin-4-yl)amino)tetrahydro-2H-pyran-2-yl)ethyl)acetamide], the IC50 was found to be 5.9 nM.

`N[C@H]1CC[C@@H](Nc2ncnc3[nH]cc(C(=O)c4cccc(Oc5ccccc5)c4)c23)CC1` [Compound I-131, (4-((cis-4-aminocyclohexyl)amino)-7H-pyrrolo[2,3-d]pyrimidin-5-yl)(3-phenoxyphenyl)methanone]: the IC50 came to 3.8 nM.

As to `CC(O)CCCCC(=O)N[C@H]1CC[C@@H](Nc2ncnc3[nH]cc(C(=O)c4ccc(Oc5ccccc5)cc4Cl)c23)CC1` (mixture of isomers) [Compound I-212, rac-N-(cis-4-((5-(2-chloro-4-phenoxybenzoyl)-7H-pyrrolo[2,3-d]pyrimidin-4-yl)amino)cyclohexyl)-6-hydroxyheptanamide], the 50% inhibitory concentration (IC50) was determined as 2.9 nM.

Regarding `C[C@H](NC(=O)[C@@H](C)O)[C@@H]1CC[C@@H](Nc2ncnc3[nH]cc(C(=O)c4ccc(Oc5ccccc5)cc4)c23)CO1` [Compound I-215, (R)-2-hydroxy-N-((S)-1-((2S,5R)-5-((5-(4-phenoxybenzoyl)-7H-pyrrolo[2,3-d]pyrimidin-4-yl)amino)tetrahydro-2H-pyran-2-yl)ethyl)propanamide], the IC50 was determined as 3.9 nM.

As for `CC(C)(C)OC(=O)N[C@H]1CC[C@H](Nc2ncnc3[nH]cc(C(=O)c4ccc(Oc5ccccc5)cc4)c23)C1` [Compound I-184, tert-butyl ((1S,3S)-3-((5-(4-phenoxybenzoyl)-7H-pyrrolo[2,3-d]pyrimidin-4-yl)amino)cyclopentyl)carbamate], the IC50 stood at 61 nM.

Turning to `CC(C)(O)C(=O)N[C@H]1CC[C@@H](Nc2ncnc3[nH]cc(C(=O)c4ccc(Oc5ccccc5)cc4Cl)c23)CC1` [Compound I-194, N-(cis-4-((5-(2-chloro-4-phenoxybenzoyl)-7H-pyrrolo[2,3-d]pyrimidin-4-yl)amino)cyclohexyl)-2-hydroxy-2-methylpropanamide], the IC50 came out at 1.5 nM.

Consider `CC(=O)NC[C@@H]1CC[C@@H](Nc2ncnc3[nH]cc(C(=O)c4ccccc4Cl)c23)CO1` [Compound I-118, N-(((2S,5R)-5-((5-(2-chlorobenzoyl)-7H-pyrrolo[2,3-d]pyrimidin-4-yl)amino)tetrahydro-2H-pyran-2-yl)methyl)acetamide], for which the IC50 worked out at 4.4 nM.

With `COC1CN([C@H]2CC[C@H](Nc3ncnc4[nH]cc(C(=O)c5ccccc5Cl)c34)CC2)C1` [Compound I-110, (2-chlorophenyl)(4-((trans-4-(3-methoxyazetidin-1-yl)cyclohexyl)amino)-7H-pyrrolo[2,3-d]pyrimidin-5-yl)methanone], the IC50 amounted to 16 nM.

Regarding `CC(=O)N[C@@H](C)[C@@H]1CC[C@@H](Nc2ncnc3[nH]cc(C(=O)c4ccccc4Cl)c23)CO1` [Compound I-116, N—((S)-1-((2S,5R)-5-((5-(2-chlorobenzoyl)-7H-pyrrolo[2,3-d]pyrimidin-4-yl)amino)tetrahydro-2H-pyran-2-yl)ethyl)acetamide], the IC50 amounted to 5.9 nM.

`C[C@H](O)C(=O)N(C)[C@H]1CC[C@@H](Nc2ncnc3[nH]cc(C(=O)c4ccccc4Cl)c23)CC1` [Compound I-106, (S)—N-(cis-4-((5-(2-chlorobenzoyl)-7H-pyrrolo[2,3-d]pyrimidin-4-yl)amino)cyclohexyl)-2-hydroxy-N-methylpropanamide]: the IC50 came out at 4.6 nM.
